{"source": "ChEMBL document CHEMBL4396923", "about": "“Applications of amide isosteres in medicinal chemistry” (Bioorg Med Chem Lett, 2019)", "key": {"[1]": {"target": "Delta-type opioid receptor (Homo sapiens, UniProt P41143)", "sequence (P41143 whole entry)": "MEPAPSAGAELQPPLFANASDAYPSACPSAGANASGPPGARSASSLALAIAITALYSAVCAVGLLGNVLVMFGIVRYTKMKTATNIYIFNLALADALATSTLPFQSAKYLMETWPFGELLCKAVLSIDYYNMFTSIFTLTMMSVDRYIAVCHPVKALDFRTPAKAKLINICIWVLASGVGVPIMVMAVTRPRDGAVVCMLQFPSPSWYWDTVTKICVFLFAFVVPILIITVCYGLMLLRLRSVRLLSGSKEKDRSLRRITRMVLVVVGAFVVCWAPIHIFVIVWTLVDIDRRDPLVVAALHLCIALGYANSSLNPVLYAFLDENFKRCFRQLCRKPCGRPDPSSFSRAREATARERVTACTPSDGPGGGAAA", "description": "Agonist activity at delta opioid receptor (unknown origin) expressed in CHO cells"}, "[2]": {"target": "Kappa-type opioid receptor (Homo sapiens, UniProt P41145)", "sequence (P41145 whole entry)": "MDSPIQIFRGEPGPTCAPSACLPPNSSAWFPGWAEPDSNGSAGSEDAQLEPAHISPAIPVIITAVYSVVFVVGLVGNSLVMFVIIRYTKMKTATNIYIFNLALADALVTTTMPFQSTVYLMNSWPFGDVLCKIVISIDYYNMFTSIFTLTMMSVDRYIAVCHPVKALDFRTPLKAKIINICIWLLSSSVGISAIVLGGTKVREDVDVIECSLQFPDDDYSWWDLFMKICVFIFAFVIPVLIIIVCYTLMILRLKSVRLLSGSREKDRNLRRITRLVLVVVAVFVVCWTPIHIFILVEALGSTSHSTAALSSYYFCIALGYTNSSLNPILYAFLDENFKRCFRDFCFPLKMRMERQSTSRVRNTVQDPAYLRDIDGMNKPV", "test": "Agonist activity at kappa opioid receptor (unknown origin) expressed in CHO cells", "type": "cell-based"}, "[3]": {"test": "Stability in human plasma assessed as parent compound remaining at 4 hrs", "type": "ADME, cell-free", "conditions": "read-out: Stability"}, "[4]": {"test": "Stability in rat plasma assessed as parent compound remaining at 4 hrs", "type": "ADME, cell-free", "conditions": "read-out: Stability"}, "Mu-type opioid receptor": {"target": "Mu-type opioid receptor (Homo sapiens, UniProt P35372)", "sequence (P35372 whole entry)": "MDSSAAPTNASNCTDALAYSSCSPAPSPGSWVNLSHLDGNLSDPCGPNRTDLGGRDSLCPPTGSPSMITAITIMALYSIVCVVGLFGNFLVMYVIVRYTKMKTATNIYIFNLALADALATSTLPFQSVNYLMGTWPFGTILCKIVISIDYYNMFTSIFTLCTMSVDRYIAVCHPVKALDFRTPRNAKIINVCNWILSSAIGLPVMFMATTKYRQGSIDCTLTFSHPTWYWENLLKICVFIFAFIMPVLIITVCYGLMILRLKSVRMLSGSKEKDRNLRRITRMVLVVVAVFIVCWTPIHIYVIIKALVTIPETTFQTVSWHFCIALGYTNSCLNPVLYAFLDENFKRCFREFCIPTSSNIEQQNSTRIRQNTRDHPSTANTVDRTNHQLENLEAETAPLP", "test": "Agonist activity at mu opioid receptor (unknown origin) expressed in CHO cells", "type": "cell-based"}, "Hamster": {"test_system": "Hamster", "test": "Protection against HLE-induced acute lung damage in hamster", "type": "functional", "conditions": "Cricetinae"}, "[5]": {"test": "Half life in human serum", "type": "ADME, cell-free"}, "[6]": {"target": "D(2) dopamine receptor (Homo sapiens) (UniProt P14416)", "sequence (P14416 whole entry)": "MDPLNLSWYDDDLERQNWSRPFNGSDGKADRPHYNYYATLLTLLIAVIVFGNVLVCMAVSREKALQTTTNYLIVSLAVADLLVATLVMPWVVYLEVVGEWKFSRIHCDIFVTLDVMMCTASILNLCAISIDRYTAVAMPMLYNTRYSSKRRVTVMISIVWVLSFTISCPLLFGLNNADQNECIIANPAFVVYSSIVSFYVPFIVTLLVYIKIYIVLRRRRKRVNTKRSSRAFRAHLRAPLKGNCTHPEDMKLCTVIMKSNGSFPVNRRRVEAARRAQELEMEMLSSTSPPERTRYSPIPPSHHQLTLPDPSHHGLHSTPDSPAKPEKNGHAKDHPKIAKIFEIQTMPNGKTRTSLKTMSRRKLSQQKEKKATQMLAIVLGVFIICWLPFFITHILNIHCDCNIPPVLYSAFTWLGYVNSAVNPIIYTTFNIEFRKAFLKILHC", "test": "Agonist activity at human D2 receptor expressed in NIH/3T3 cells co-expressing beta-galactosidase assessed as increase in beta-galactosidase activity at 10 uM incubated for 5 days by spectrophotometry relative to control", "type": "cell-based"}, "Beta-secretase 1": {"target": "Beta-secretase 1 (Homo sapiens, UniProt P56817)", "sequence (P56817 whole entry)": "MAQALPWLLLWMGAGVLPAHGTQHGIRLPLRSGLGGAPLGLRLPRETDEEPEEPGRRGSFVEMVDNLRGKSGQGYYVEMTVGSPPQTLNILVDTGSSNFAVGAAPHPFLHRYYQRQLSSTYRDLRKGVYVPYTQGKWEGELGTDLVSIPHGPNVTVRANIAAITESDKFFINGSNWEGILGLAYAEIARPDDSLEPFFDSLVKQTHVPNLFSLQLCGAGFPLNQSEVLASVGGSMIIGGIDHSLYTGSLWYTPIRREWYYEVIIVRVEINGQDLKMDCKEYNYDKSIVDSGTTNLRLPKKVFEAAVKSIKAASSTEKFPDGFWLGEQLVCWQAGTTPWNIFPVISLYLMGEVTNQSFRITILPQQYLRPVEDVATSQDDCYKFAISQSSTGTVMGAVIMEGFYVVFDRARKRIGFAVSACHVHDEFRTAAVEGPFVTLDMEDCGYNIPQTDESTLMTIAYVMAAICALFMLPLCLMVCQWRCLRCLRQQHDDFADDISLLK", "test": "Inhibition of BACE-1 (unknown origin)"}, "[7]": {"target": "angiotensin-converting enzyme (Homo sapiens, UniProt P12821)", "sequence (P12821 whole entry)": "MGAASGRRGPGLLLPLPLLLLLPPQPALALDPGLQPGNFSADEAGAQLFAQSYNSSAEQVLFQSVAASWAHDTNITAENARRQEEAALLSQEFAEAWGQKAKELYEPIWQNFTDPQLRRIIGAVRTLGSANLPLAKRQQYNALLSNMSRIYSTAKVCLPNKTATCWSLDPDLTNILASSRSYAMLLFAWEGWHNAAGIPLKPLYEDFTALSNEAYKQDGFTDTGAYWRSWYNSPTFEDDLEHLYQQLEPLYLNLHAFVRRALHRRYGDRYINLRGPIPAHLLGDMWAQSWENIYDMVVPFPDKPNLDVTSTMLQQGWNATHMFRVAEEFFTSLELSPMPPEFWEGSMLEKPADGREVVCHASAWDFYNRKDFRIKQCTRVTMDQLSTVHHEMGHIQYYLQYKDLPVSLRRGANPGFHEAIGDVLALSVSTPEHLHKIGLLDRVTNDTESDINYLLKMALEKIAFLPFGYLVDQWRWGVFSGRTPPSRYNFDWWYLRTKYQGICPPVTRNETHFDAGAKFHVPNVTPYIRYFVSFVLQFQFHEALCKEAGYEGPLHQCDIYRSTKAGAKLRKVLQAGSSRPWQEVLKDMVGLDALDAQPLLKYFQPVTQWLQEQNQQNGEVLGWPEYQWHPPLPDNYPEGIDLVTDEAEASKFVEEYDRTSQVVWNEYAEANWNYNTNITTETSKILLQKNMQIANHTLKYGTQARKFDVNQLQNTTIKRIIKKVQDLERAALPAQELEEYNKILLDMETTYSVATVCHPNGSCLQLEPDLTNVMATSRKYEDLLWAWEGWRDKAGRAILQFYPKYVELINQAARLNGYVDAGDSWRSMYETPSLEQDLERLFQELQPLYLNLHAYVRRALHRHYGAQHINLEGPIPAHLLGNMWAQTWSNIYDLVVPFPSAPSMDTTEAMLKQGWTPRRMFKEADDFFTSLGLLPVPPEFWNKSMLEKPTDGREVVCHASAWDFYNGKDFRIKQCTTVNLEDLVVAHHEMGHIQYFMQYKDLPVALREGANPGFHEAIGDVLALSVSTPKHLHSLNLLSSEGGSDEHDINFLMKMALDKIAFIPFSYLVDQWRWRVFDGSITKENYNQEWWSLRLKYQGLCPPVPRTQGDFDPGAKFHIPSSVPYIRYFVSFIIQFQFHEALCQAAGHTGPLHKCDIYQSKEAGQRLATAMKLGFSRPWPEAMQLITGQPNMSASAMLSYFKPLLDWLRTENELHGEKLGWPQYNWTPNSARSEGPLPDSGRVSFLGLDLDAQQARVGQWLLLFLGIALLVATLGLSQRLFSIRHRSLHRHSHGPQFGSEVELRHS", "test": "Drug metabolism assessed as angiotensin converting enzyme (unknown origin)-mediated Gly3-Phe4 cleavage by measuring half life", "type": "ADME"}}, "note": "Residues, ends and D or L forms follow the SMILES beside them."}
{"smiles": "CC(C)C[C@H](NC(=O)[C@@H](/C=C(\\F)CNC(=O)CNC(=O)[C@@H](N)Cc1ccc(O)cc1)Cc1ccccc1)C(=O)O", "values": [{"measurement": "EC50", "setting": "[1]", "value": 43, "unit": "nM"}]}
{"smiles": "Cc1ccc(C[C@H](N)/C(F)=C/CC(=O)NCC(=O)N[C@@H](Cc2ccccc2)C(=O)N[C@@H](CC(C)C)C(=O)O)cc1", "values": [{"measurement": "EC50", "setting": "[2]", "value": "> 10", "unit": "nM"}, {"measurement": "EC50", "setting": "[1]", "value": 5, "unit": "nM"}, {"measurement": "remaining at 4 h", "setting": "[3]", "value": 68, "unit": "%"}, {"measurement": "remaining at 4 h", "setting": "[4]", "value": 76, "unit": "%"}, {"measurement": "EC50", "setting": "Mu-type opioid receptor", "value": 60, "unit": "nM"}]}
{"smiles": "CC(C)C(NC(=O)Cn1c(-c2ccc(F)cc2)ncc(N)c1=O)C(=O)C(F)(F)F", "note": "(stereo not drawn)", "values": [{"measurement": "ED50", "setting": "Hamster", "value": 7.5, "unit": "mg/kg"}]}
{"smiles": "CC(C)C[C@H](NC(=O)[C@H](Cc1ccccc1)NC1(CNC(=O)CNC(=O)[C@@H](N)Cc2ccc(O)cc2)COC1)C(=O)O.O=C(O)C(F)(F)F", "values": [{"measurement": "half-life", "setting": "[5]", "value": 0.25, "unit": "h"}, {"measurement": "Ki", "setting": "[1]", "value": 157, "unit": "nM"}]}
{"smiles": "CC(C)C[C@H](NC(=O)[C@H](Cc1ccccc1)NC(=O)CNC(=O)CNC1([C@@H](N)Cc2ccc(O)cc2)COC1)C(=O)O.O=C(O)C(F)(F)F", "values": [{"measurement": "half-life", "setting": "[5]", "value": 3.2, "unit": "h"}]}
{"smiles": "CC(C)C[C@H](NC(=O)[C@@H]1CCCN1)C(=O)NCC(N)=O", "note": "(H-Pro-Leu-Gly-NH2)", "values": [{"measurement": "Activity", "setting": "[6]", "value": 146, "unit": "%"}]}
{"smiles": "COC(=O)[C@@H]1C[C@H](NC(=O)[C@@H](NC(=O)C[C@H](O)[C@H](Cc2cc(F)cc(F)c2)NC(=O)C(O)c2ccccc2-c2ccccc2)C(C)C)C[C@H](C(=O)OC)C1", "note": "(stereo partly drawn)", "values": [{"measurement": "IC50", "setting": "Beta-secretase 1", "value": 120, "unit": "nM"}]}
{"smiles": "CC(C)C[C@H](NC1([C@H](Cc2ccccc2)NC(=O)CNC(=O)CNC(=O)[C@@H](N)Cc2ccc(O)cc2)COC1)C(=O)O.O=C(O)C(F)(F)F", "values": [{"measurement": "half-life", "setting": "[5]", "value": 0.433, "unit": "h"}, {"measurement": "Ki", "setting": "[1]", "value": 43, "unit": "nM"}]}
{"smiles": "CC(C)C[C@H](NC(=O)[C@H](Cc1ccccc1)NC(=O)CNC(=O)CNC([C@@H](N)Cc1ccc(O)cc1)C(F)(F)F)C(=O)O", "note": "(mixture of isomers)", "values": [{"measurement": "EC50", "setting": "[1]", "value": "> 10", "unit": "nM"}]}
{"smiles": "CC(C)C[C@H](NC(=O)[C@@H](/C=C/CNC(=O)CNC(=O)[C@@H](N)Cc1ccc(O)cc1)Cc1ccccc1)C(=O)O", "values": [{"measurement": "EC50", "setting": "[1]", "value": 587, "unit": "nM"}]}
{"smiles": "CC(C)C[C@H](NC(=O)[C@H](Cc1ccccc1)NC(=O)CNC(=O)CNC(=O)[C@@H](N)Cc1ccc(O)cc1)C(=O)O", "note": "[ENKEPHALIN]", "values": [{"measurement": "half-life", "setting": "[7]", "value": 2.17, "unit": "h"}]}
{"smiles": "CC(C)C[C@H](NC(=O)[C@H](Cc1ccccc1)NC(=O)CNC1(CNC(=O)[C@@H](N)Cc2ccc(O)cc2)COC1)C(=O)O.O=C(O)C(F)(F)F", "values": [{"measurement": "half-life", "setting": "[5]", "value": 18, "unit": "h"}]}
